Experimental data from patent US20130052190A1, “CRTH2 Antagonists for Treatment of Eosinophilic Diseases and Conditions” (Oxagen Limited, priority 2011, published 2013).

Experiments:
[1] = tested on: patients with mild to moderate asthma; test: 4 week study in patients with mild to moderate asthma (FEV1); assay type: in vivo, human; details: after 4 weeks, 100 mg twice daily
Description: 4 Week Study in Patients with Mild to Moderate Asthma
The study was a randomized, double blind, placebo controlled study of (5-fluoro-2-methyl-3-quinolin-2-ylmethyl-indol-1-yl)-acetic acid (OC000459) for 28 days in patients with mild to moderate asthma with a FEV1 of 60-80% of predicted and requiring only short acting inhaled β2 agonists for symptomatic control. The study compared patients taking 100 mg of OC000459 twice daily with patients taking a placebo twice daily. The study consisted of 112 patients with 53 patients taking OC000459 and 59 patients taking the placebo.
1. Males and females aged 18-55 years. 2. Asthma controlled by short-acting β2 agonists only. 3. Mild to moderate persistent asthma according to GINA4 guidelines for at least 12 months. 4. Non-smokers for at least the past 12 months with a pack history of less than 10 pack years. 5. History of asthma symptoms increasing in response to external allergens. 6. Testing positive on skin prick test to an allergen associated with the patient's allergen.
1. Receipt of prescribed or over-the-counter medication within 14 days prior to the first study day. 2. Use of inhaled or local corticosteroids in the period 28 days prior to screening.

[2] = tested on: patients with mild to moderate persistent asthma; test: 12 week study in patients with mild to moderate persistent asthma (FEV1); assay type: in vivo, human; details: for FEV1 Improvement: 12 weeks, patient population on OC000459; for improvement in FEV1 over patients given the placebo / improvement in FEV1 over baseline: after 12 weeks
Description: 12 Week Study in Patients with Mild to Moderate Persistent Asthma
The study was a randomized, double blind, placebo controlled, four arm study of three dosage levels of (5-fluoro-2-methyl-3-quinolin-2-ylmethyl-indol-1-yl)-acetic acid (OC000459) tablets in patients with asthma controlled by β2 agonists alone. The study compared patients on OC000459 at three different dose levels (25 mg once daily, 100 mg twice daily, and 200 mg once daily) with patients on placebo after dosing for 12 weeks. The study consisted of 460 patients which yielded 440 evaluable results with 110 patients per arm. There was a screening period of 1 to 2 weeks, followed by placebo run-in for 3 weeks before the treatment period. There was a placebo wash-out for two weeks following the treatment period with a follow-up 3 to 5 weeks after the treatment period.
1. Males and females aged 18-55 years. 2. Asthma controlled by short-acting β2 agonists only. 3. Mild to moderate persistent asthma according to GINA4 guidelines for at least 12 months. 4. Non-smokers for at least the past 12 months with a pack history of less than 10 pack years.
Receipt of prescribed or over-the-counter medication within 14 days prior to the first study day.
1. Morning FEV1 of 60-85% of predicted. 2. Reversibility of ≧12% after salbutamol. 3. Greater than 1 puff per day of salbutamol required.

[3] = blood eosinophil count greater than or equal to 250/μL, FIG. 6(b)
[4] = full population (112 patients), FIG. 6(a)
[5] = FEV1 60-80% of predicted and positive skin prick test at baseline, FIG. 1
[6] = FEV1 60-80% of predicted, blood eosinophil count greater than or equal to 250/μL, positive skin prick test, FIG. 2

Cc1c(Cc2ccc3ccccc3n2)c2cc(F)ccc2n1CC(=O)O [OC000459, (5-fluoro-2-methyl-3-quinolin-2-ylmethyl-indol-1-yl)-acetic acid]
improvement in FEV1 over baseline [1, 3]: 250 mL | improvement in FEV1 over patients given the placebo [1, 3]: 180 mL | improvement in FEV1 over patients given the placebo ([1]; blood eosinophil count less than 250/μL, FIG. 6(c)): only a small improvement | improvement in FEV1 over baseline [1, 4]: 190 mL | improvement in FEV1 over patients given the placebo [1, 4]: 100 mL | FEV1 Improvement ([2]; 60-80% FEV1 Atopic): 130 mL | FEV1 Improvement ([2]; All-Comers): 100 mL | FEV1 Improvement ([2]; Hi-eosinophil count (>250/μL)): 188 mL | improvement in FEV1 over patients given the placebo ([2]; ACQ score greater than or equal to 1.5 at baseline, FIG. 4): 140 mL | improvement in FEV1 over patients given the placebo ([2]; ACQ score less than 1.5 at baseline, FIG. 5): 30 mL | improvement in FEV1 over baseline [2, 5]: 191 mL | improvement in FEV1 over patients given the placebo [2, 5]: 130 mL | improvement in FEV1 over baseline [2, 6]: 184 mL | improvement in FEV1 over patients given the placebo [2, 6]: 188 mL | improvement in FEV1 over patients given the placebo ([2]; FEV1 60-80% of predicted, blood eosinophil count less than 250/μL, positive skin prick test, FIG. 3): 76 mL
